How the values were obtained:
homovanillic acid = assay: Determination of Homovanillic Acid (HVA) in rat brain; format: in vivo, rats; details: po, 2 h, read-out: Increase in HVA; for response vs control in vivo at 50 mg/kg: dose 50 mg/kg p.o.
in vivo = details: mouse, po
rats [1] = assay: "Pole Climbing" Test (conditioned / unconditioned reaction); format: in vivo; details: for ED50: Rattus norvegicus, po, read-out: ED50 (blocking of the conditioned reaction); for ED50 / Quotient ED10 (blocking of the unconditioned reaction)/ED50 (blocking of the conditioned reaction): rats, p.o.; for Quotient ED10 (blocking of the unconditioned reaction)/ED50 (blocking of the conditioned reaction): larger quotient = greater selectivity of neuroleptic activity
Text: II. "Pole Climbing" Test This test provides information about behavior reactions of rats. Rats are trained to avoid, by climbing up a vertical pole in the test chamber, an electrical impulse-- unconditioned impulse-- released via the […] floor some seconds after an acoustic signal-- conditioned impulse. The blocking of the conditioned reaction is designated by the parameter ED50 (mg/kg. p.o.) and the blocking of the unconditioned reaction is designated by the parameter ED10 (mg/kg. p.o.). The parameter ED50 --blocking of the conditioned reaction-- provides a measure of the strength of the neuroleptic activity of the derivative under investigation.

Catalepsy Test = format: in vivo, rats; details: rat, in vivo, ip; rats, intraperitoneally; observed every 30 minutes for 6 hours; read-out: ED50 (dose at which 50% of the animals show catalepsy)
Experimental: (§1) A cataleptic activity-- "wax rigidity", i.e., abnormally long retention of a fixed body position--in central depressant or neuroleptically active compounds is considered to be an undesirable side-effect and is produced by motor disorders. Representative dibenz[b,f]oxepin derivatives provided by this invention were administered intraperitoneally to rats. The animals are considered to be cataleptic when the homolateral extremities remain in a crossed position for at least 10 seconds. The number of cataleptic animals is noted every 30 minutes for 6 hours. The ED50 is the dose at which 50% of the animals show catalepsy.

rats [2] = assay: Catalepsy Test; format: in vivo; details: in words, relative to chlorpromazine
Experimental: as §1

[3] = rats killed two hours after dosing, untreated rats fixed at 100%
[4] = in words, relative to chlorpromazine

Row | SMILES | response vs control in vivo at 50 mg/kg (homovanillic acid; [3]) | LD50 at 24 h (in vivo) | ED50 (rats [1]) | Quotient ED10 (blocking of the unconditioned reaction)/ED50 (blocking of the conditioned reaction) (rats [1]) | ED50 at 6 h (Catalepsy Test) | cataleptic side-effect compared with chlorpromazine (rats [2]) | other results
1 | O=C1OCCN1CCN1CCN(C2Cc3cc(Cl)ccc3Oc3ccccc32)CC1 (stereo not drawn) [G] | 225% | 450 mg/kg | 15.5 mg/kg | 3.5 | 50 mg/kg | about one half to about one eighth of the undesired cataleptic side-effect of chlorpromazine | neuroleptic strength of action compared with chlorpromazine (rats [1]; [4]): somewhat lower than that of chlorpromazine
2 | CN(C)CCCN1c2ccccc2Sc2ccc(Cl)cc21 [Chlorpromazine, reference compound] | – | – | – | 2.5 | 6 mg/kg | – | response vs control in vivo at 20 mg/kg (homovanillic acid): 320%
3 | OCCCN1CCN(C2Cc3cc(Cl)ccc3Oc3ccccc32)CC1 (stereo not drawn) [B] | – | 375 mg/kg | – | – | – | – | response vs control in vivo at 3.5 mg/kg (homovanillic acid; dose 3.5 mg/kg p.o., rats killed two hours after dosing, untreated rats fixed at 100%): 260%
4 | O=C1OCCN1CCN1CCN(C2Cc3cc(Cl)ccc3Oc3ccc(F)cc32)CC1 (stereo not drawn) [E] | – | 900 mg/kg | 3.5 mg/kg | 2.8 | – | – | response vs control in vivo at 10 mg/kg (homovanillic acid; dose 10 mg/kg p.o., rats killed two hours after dosing, untreated rats fixed at 100%): 260%
5 | O=C1OCCN1CCN1CCN(C2Cc3cc(Cl)ccc3Oc3ccc(Cl)cc32)CC1 (stereo not drawn) [C] | – | 900 mg/kg | – | – | – | – | response vs control in vivo at 5 mg/kg (homovanillic acid; dose 5 mg/kg p.o., rats killed two hours after dosing, untreated rats fixed at 100%): 365%
6 | Cc1ccc2c(c1)CC(N1CCN(CCN3CCOC3=O)CC1)c1cc(F)ccc1O2 (stereo not drawn) [F] | 265% | 450 mg/kg | 7 mg/kg | 5.1 | 30 mg/kg | about one half to about one eighth of the undesired cataleptic side-effect of chlorpromazine | –
7 | Cc1ccc2c(c1)CC(N1CCN(CCN3CCOC3=O)CC1)c1cc(C)ccc1O2 (stereo not drawn) [D] | – | 750 mg/kg | 7.6 mg/kg | 5.6 | 14 mg/kg | about one half to about one eighth of the undesired cataleptic side-effect of chlorpromazine | response vs control in vivo at 15 mg/kg (homovanillic acid; dose 15 mg/kg p.o., rats killed two hours after dosing, untreated rats fixed at 100%): 335%
8 | N#CCCN1CCN(C2Cc3cc(Cl)ccc3Oc3ccccc32)CC1 (stereo not drawn) [H] | 275% | 1500 mg/kg | 14 mg/kg | > 21 | > 30 mg/kg | less than one fifth of the undesired cataleptic side-effect of chlorpromazine | neuroleptic strength of action compared with chlorpromazine (rats [1]; [4]): somewhat lower than that of chlorpromazine; quality (selectivity) of the neuroleptic activity compared with chlorpromazine (rats [1]; [4]): this superiority is particularly evident
9 | Cc1ccc2c(c1)CC(N1CCN(C)CC1)c1cc(C)ccc1O2 (stereo not drawn) [A] | – | 900 mg/kg | 3.2 mg/kg | 3.1 | – | – | response vs control in vivo at 2 mg/kg (homovanillic acid; dose 2 mg/kg p.o., rats killed two hours after dosing, untreated rats fixed at 100%): 235%
